Experimental data as given in US20050065595A1, “Implants containing combretastatin a-4” (priority 2001, published 2005).

Experiments:
endothelial cells = experiment: Cell culture studies with endothelial cells after CA4 treatment; type: cell-based; conditions: following a treatment with CA4
[1] = system: smooth muscle cells (SMCs); experiment: SMC proliferation inhibition (BrdU-ELISA or cell counting); type: cell-based; conditions: for IC50: 96 h, SMCs, 2000 cells per well, BrdU-ELISA (paclitaxel: counting the number of cells), 24, 48, 72, 96 h
Procedure: SMCs were plated out in a 96-well plate in a density of 2000 cells per well. After 24 h, different concentrations of the active substance were adjusted (10^−2 to 10^−10M). The proliferation was measured after 24, 48, 72, and 96 h following the addition of the active substance using a BrdU-ELISA or, in the case of paclitaxel, by counting the number of cells.

tumors = conditions: various animal models; cited from earlier work
alkaline phosphatases = conditions: by alkaline phosphatases; cited from earlier work
tumor cell lines = conditions: cell culture studies, many different tumor cell lines; read-out: IC50, growth of tumor cell lines; cited from earlier work
neointimal development [2] = conditions: swine; cited from earlier work
neointimal development [3] = conditions: animal experiments; cited from earlier work
restenosis = conditions: vascular wall injured by balloon angioplasty and stent placement; cited from earlier work

COc1ccc(/C=C\c2cc(OC)c(OC)c(OC)c2)cc1O [CA4, 2-methoxy-5-[(1Z)-2-(3,4,5-trimethoxyphenyl)ethenyl]phenol]
recovery of endothelial cells versus SMCs after treatment (endothelial cells): endothelial cells are able to recover more rapidly than the SMCs
IC50 [1]: ~0.5 nM
effectiveness relative to paclitaxel (SMC proliferation) ([1]; CA4 vs paclitaxel): 10 to 50 times

COc1ccc(/C=C\c2cc(OC)c(OC)c(OC)c2)cc1OP(=O)([O-])[O-].[Na+].[Na+] [CA4P, disodium combretastatin-A4-3-O-phosphate]
inhibition of tumor growth (tumors): markedly inhibit the growth of tumors
transformation into CA4 in vivo (alkaline phosphatases): very rapidly transformed into CA4
IC50 (tumor cell lines): 0.2 to 6 nM

CC(=O)O[C@H]1C(=O)[C@@]2(C)[C@H]([C@H](OC(=O)c3ccccc3)[C@]3(O)C[C@H](OC(=O)[C@H](O)[C@@H](NC(=O)c4ccccc4)c4ccccc4)C(C)=C1C3(C)C)[C@]1(OC(C)=O)CO[C@@H]1C[C@@H]2O [paclitaxel]
effect 6 months after implantation of coated stents (neointimal development [2]): the effect had been neutralized
effect on neointimal development (neointimal development [3]): inhibit the neointimal development
IC50 [1]: ~10 nM

CO[C@H]1C[C@@H]2CC[C@@H](C)[C@@](O)(O2)C(=O)C(=O)N2CCCC[C@H]2C(=O)O[C@H]([C@H](C)C[C@@H]2CC[C@@H](O)[C@H](OC)C2)CC(=O)[C@H](C)/C=C(\C)[C@@H](O)[C@@H](OC)C(=O)[C@H](C)C[C@H](C)/C=C/C=C/C=C/1C [rapamycin]
healing of the vascular wall (restenosis): delayed healing of the vascular wall
